# Assay results published in publication PMC9169222, “Impedance-Based Phenotypic Readout of Transporter Function: A Case for Glutamate Transporters” (Frontiers in Pharmacology, 2022).
# Entries after “also recorded” stand apart in the source; their conditions may differ. Counter-ions that a name gives are not always drawn. Like-named read-outs stand apart in the source and are kept apart here.
# Tests used:
# JumpIn-EAAT1 cells = experiment: Targeted metabolomics (LC-MS/MS) of intracellular metabolite levels; assay type: cell-based, human; details: 1 mM substrate, 2 h
# Experimental: JumpIn-EAAT1 cells were plated at 150,000 cells/well in 24 well poly-L-lysine coated plates in culture medium in the absence (−dox) or presence (+dox) of 1 μg/ml doxycycline and grown at 37°C and 5% CO2. After 24 h, the medium was refreshed and cells were pretreated with vehicle (PBS/DMSO) or 10 µM TFB-TBOA. […] For lysis, cells were first gently washed with room temperature bicarbonate buffer (91 mM NH4HCO3, pH 7.4). […] The cells were then scraped and transferred to a pre-cooled Eppendorf tube and immediately snap frozen in liquid nitrogen. Samples were thawed on ice before being centrifuged at 16,000 × g for 10 min at 4°C. The clarified metabolite-containing supernatants were moved into a high-performance liquid chromatography vial and stored at −80°C until LC-MS/MS analysis.
# Cell extracts were dried using a nitrogen evaporator. The dry residue was reconstituted in 16 µl H2O and 4 µl of sample extract was used for LC-MS/MS analysis. […] The column was maintained at a temperature of 40°C and 4 µl of sample was injected per run. The mobile phase A was 3% MeOH (v/v), 10 mM tributylamine, 15 mM acetic acid in H2O, and mobile phase B was 10 mM tributylamine, 15 mM acetic acid in MeOH. The gradient elution with a flow rate 0.25 mL/min was performed for a total time of 24 min. […] The metabolites of interest were detected using a dynamic Multiple Reaction Monitoring (MRM) mode. The MassHunter 10.0 software (Agilent Technologies) was used for the data processing. Ten-point linear calibration curves with internal standardization were constructed for the quantification of metabolites.
# Volcano plots were generated to visualize the significant up- or downregulation of intracellular metabolite concentrations. The log2 fold change upon substrate addition is plotted against the −log10 adjusted p-value.
# [1] = target: T1, EAAT1 / mGluR2 (JumpIn-EAAT1-mGluR2 cells) (Homo sapiens, UniProt P43003); experiment: Impedance-based TRACT assay (xCELLigence) on JumpIn-EAAT1-mGluR2 cells; assay type: cell-based
# T1 construct: FLAG-tag (N); expressed in transfected cells; host or cells: Jump In T-REx HEK 293 (JumpIn-EAAT1), transiently transfected with mGluR2 cDNA
# [2] = test system: EAAT1 / mGluR2 (JumpIn-EAAT1-mGluR2 cells); experiment: as above; assay type: cell-based, human; details: for Substrate pEC50 ± SEM (AUC = 0–15 min): JumpIn-EAAT1-mGluR2, +dox
# [3] = target: T2, EAAT5 (JumpIn-EAAT5 cells) (Homo sapiens, UniProt O00341); experiment: Impedance-based phenotypic assay on JumpIn-EAAT5 cells; assay type: cell-based; details: JumpIn-EAAT5, 1 mM L-glu, p = 0.0032
# T2 construct: expressed in transfected cells; host or cells: Jump In T-REx HEK 293
# Experimental: Label-free whole-cell assays, based on cell-induced changes in impedance, were performed using the xCELLigence real-time cell analyzer (RTCA) system (ACEA Biosciences, San Diego, CA, United States) as described previously ([Vlachodimou et al., 2019]; [Sijben et al., 2021a], [2021b]). In short, cells are cultured in medium on gold-plated electrodes in microwell E-plates. Per well impedance is continuously measured at 10 kHz and is converted to the unitless parameter Cell Index (CI) by the following formula: CI=(Zi−Z0)Ω/15Ω where Zi is the impedance at any given time point and Z0 is the baseline impedance measured at the start of each experiment ([Kho et al., 2015]).
# Assays were performed at 37°C and 5% CO2 in 96-well PET E-plates in a total volume of 100 µl per well. Prior to cell seeding, the baseline impedance (Z0) was measured in the recording station in 40 µl (two compound additions) or 45 µl (one compound addition) medium in the presence (+) or absence (−) of 1 μg/ml dox. […]
# On the day of the experiment, JumpIn-EAAT cells grown to 70–80% confluence were trypsinized (0.25% trypsin in PBS/EDTA), counted and seeded in the E-plate in a volume of 50 μl at 60,000 cells/well. […] Cell growth was recorded overnight for 22 h. […] After stimulation the impedance was measured for at least 2 h. […]
# Experimental data was recorded using RTCA Software v2.0 or v2.1.1 (ACEA Biosciences). […]
# [4] = target: T3, EAAT2 (JumpIn-EAAT2 cells) (Homo sapiens, UniProt P43004); experiment: Impedance-based phenotypic assay (xCELLigence) on JumpIn-EAAT2 cells; assay type: cell-based; details: net AUC 0–120 min, read-out: Substrate pEC50 ± SEM (converted)
# T3 construct: expressed in transfected cells; host or cells: Jump In T-REx HEK 293
# T3 sequence (P43004 whole entry): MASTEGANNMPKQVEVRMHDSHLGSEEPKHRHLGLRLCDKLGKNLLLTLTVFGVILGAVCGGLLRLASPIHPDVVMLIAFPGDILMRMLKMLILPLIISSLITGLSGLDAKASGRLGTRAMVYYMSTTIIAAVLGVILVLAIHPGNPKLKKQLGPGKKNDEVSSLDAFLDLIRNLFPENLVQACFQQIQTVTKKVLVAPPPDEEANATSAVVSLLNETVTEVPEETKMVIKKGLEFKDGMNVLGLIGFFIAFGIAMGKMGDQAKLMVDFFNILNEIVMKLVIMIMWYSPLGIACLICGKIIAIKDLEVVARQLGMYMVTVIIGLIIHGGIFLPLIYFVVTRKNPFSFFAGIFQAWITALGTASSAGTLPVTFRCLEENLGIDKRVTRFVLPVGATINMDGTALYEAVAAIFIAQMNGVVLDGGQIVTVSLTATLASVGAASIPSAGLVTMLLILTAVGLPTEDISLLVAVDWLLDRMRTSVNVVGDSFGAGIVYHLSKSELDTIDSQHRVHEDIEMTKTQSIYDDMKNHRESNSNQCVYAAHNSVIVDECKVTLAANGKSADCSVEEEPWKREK
# T2 sequence (O00341 whole entry): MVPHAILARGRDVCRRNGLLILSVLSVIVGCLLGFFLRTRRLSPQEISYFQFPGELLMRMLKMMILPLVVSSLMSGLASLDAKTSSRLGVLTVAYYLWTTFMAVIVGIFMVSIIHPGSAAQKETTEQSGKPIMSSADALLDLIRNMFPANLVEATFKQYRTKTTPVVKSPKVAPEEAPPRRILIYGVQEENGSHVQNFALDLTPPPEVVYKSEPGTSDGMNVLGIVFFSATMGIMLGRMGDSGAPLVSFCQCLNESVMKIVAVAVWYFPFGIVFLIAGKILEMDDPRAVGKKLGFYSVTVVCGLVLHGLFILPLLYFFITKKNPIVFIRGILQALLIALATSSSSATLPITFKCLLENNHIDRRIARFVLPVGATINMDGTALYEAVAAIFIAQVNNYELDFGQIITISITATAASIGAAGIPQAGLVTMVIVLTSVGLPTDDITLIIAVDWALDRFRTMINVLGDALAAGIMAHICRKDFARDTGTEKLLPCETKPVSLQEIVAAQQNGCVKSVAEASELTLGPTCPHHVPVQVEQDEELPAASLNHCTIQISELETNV
# T1 sequence (P43003 whole entry, the tested form may be a part): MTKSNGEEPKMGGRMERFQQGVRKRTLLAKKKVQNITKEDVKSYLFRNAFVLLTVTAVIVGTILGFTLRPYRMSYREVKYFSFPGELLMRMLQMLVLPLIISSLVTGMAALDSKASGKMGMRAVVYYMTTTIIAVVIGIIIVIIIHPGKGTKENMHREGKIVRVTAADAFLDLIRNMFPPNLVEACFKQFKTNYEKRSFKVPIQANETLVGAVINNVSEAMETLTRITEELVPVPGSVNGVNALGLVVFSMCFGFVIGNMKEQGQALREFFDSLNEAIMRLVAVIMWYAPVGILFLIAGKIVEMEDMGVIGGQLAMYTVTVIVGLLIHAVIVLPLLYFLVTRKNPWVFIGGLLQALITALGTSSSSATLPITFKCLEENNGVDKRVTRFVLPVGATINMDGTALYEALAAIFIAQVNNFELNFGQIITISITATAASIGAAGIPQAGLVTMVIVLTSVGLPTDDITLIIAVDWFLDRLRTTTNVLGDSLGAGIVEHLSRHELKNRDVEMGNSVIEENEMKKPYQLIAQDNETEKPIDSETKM
structure (smiles),measurement,setting,value
"N[C@@H](CCC(=O)O)C(=O)O [L-glutamate, L-glutamic acid monosodium salt monohydrate]",Intracellular cAMP levels,JumpIn-EAAT1 cells,significant elevations
same,Intracellular glutamine level,JumpIn-EAAT1 cells,not significantly altered
same,Levels of TCA cycle intermediates and related metabolites,JumpIn-EAAT1 cells,increased
same,Increase of intracellular aspartate,JumpIn-EAAT1 cells; +dox,5 fold
same,Increase of intracellular glutamate,JumpIn-EAAT1 cells; +dox,5 fold
same,Intracellular taurine level,JumpIn-EAAT1 cells; +dox,significantly reduced; also recorded: significant decrease
same,EC50,[1],501 µM
same,Substrate pEC50 ± SEM (AUC = 0–15 min),"[2]; no inhibitor, net AUC 0–15 min",<3.0
same,Substrate pEC50 ± SEM (AUC = 0–15 min),"[2]; pretreated 1 h with 10 µM UCPH-101, net AUC 0–15 min",3.7 ± 0.2
same,Substrate pEC50 ± SEM (AUC = 0–120 min),"[2]; JumpIn-EAAT1-mGluR2, −dox, no inhibitor, net AUC 0–120 min",4.3 ± 0.1
same,Response in dox-induced vs non-induced cells,[3],significantly higher
same,EC50,"[4]; JumpIn-EAAT2, +dox",251 µM
same,EC50,"[4]; JumpIn-EAAT2, −dox",158 µM
